Results: ChEMBL document CHEMBL5113493, “4th generation nonsteroidal aromatase inhibitors: An iterative SAR-guided design, synthesis, and biological evaluation towards picomolar dual binding inhibitors” (Eur J Med Chem, 2022)

Experiments:
[1] = molecular target: T1, Aromatase (Homo sapiens, UniProt P11511); type: cell-based, JEG-3
T1 sequence (P11511 whole entry): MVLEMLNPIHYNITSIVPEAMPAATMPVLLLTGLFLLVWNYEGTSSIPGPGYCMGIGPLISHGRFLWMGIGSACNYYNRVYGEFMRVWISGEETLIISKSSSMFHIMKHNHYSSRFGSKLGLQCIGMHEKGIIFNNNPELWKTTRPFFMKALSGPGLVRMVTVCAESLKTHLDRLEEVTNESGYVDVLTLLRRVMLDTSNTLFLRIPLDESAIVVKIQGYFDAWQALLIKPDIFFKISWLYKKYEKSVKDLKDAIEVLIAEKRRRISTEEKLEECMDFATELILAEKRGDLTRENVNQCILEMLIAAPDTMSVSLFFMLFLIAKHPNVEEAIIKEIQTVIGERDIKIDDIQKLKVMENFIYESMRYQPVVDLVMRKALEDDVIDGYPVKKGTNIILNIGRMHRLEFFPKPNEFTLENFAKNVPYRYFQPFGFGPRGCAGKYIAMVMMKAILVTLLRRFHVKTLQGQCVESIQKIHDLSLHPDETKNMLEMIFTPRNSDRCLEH

[2] = molecular target: T2, Cytochrome P450 1A2 (Homo sapiens, UniProt P05177)
T2 sequence (P05177 whole entry): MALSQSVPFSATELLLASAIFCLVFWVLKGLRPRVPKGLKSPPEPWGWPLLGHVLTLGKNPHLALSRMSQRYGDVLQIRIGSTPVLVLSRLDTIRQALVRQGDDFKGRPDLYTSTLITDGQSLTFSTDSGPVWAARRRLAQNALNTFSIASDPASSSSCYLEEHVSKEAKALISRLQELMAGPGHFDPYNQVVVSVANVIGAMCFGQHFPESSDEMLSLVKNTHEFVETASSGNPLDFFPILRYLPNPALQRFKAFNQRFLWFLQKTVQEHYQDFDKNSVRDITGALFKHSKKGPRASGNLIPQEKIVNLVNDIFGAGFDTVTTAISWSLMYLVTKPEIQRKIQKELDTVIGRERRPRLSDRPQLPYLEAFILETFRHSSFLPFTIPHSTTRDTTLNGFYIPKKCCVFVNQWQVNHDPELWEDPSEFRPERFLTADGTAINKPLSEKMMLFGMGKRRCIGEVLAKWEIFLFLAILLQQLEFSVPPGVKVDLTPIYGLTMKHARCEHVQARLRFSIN

[3] = molecular target: Cytochrome P450 3A4 (Homo sapiens, UniProt P08684)
[4] = molecular target: Cytochrome P450 2C9 (Homo sapiens, UniProt P11712)
[5] = test system: MCF-10A; assay: Cytotoxicity against human MCF-10A cells at 1 uM measured after 48 hrs by BrdU colorimetric immunoassay; type: toxicity, cell-based
[6] = test system: MDA-MB-231; assay: Cytotoxicity against human MDA-MB-231 cells at 1 uM measured after 48 hrs by BrdU colorimetric immunoassay; type: toxicity, cell-based; conditions: mda-mb-231, 48 h
[7] = molecular target: Cytochrome P450 2D6 (Homo sapiens, UniProt P10635)
[8] = molecular target: Cytochrome P450 2C19 (Homo sapiens, UniProt P33261)
Cytochrome P450 2C19, sequence (P33261 whole entry): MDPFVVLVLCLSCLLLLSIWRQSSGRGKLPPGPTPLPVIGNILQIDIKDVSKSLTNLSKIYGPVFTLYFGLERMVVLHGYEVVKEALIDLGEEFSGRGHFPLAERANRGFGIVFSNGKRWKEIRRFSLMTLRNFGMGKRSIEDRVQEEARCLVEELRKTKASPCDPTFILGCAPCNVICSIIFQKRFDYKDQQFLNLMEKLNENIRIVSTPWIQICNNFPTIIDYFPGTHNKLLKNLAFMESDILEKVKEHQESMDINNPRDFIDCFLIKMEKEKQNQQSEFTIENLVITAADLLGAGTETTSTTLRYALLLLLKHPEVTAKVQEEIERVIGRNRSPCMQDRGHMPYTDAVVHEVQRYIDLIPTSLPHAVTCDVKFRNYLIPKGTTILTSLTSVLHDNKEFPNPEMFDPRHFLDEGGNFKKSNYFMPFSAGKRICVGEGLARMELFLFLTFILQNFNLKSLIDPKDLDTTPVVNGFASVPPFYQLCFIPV

Cytochrome P450 2D6, sequence (P10635 whole entry): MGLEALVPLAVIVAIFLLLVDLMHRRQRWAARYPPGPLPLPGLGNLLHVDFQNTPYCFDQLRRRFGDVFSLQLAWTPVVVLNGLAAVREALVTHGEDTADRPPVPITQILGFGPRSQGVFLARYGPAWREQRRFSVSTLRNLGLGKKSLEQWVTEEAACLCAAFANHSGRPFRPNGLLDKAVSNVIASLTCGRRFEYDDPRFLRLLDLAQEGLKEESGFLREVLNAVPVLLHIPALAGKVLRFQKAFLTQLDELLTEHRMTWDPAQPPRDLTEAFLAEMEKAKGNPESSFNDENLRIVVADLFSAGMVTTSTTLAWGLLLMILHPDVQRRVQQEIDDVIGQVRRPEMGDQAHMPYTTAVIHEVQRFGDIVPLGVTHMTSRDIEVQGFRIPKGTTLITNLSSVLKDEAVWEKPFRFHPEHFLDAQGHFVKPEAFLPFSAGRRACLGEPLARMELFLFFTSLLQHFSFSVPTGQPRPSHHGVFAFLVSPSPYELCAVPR
Cytochrome P450 3A4, sequence (P08684 whole entry): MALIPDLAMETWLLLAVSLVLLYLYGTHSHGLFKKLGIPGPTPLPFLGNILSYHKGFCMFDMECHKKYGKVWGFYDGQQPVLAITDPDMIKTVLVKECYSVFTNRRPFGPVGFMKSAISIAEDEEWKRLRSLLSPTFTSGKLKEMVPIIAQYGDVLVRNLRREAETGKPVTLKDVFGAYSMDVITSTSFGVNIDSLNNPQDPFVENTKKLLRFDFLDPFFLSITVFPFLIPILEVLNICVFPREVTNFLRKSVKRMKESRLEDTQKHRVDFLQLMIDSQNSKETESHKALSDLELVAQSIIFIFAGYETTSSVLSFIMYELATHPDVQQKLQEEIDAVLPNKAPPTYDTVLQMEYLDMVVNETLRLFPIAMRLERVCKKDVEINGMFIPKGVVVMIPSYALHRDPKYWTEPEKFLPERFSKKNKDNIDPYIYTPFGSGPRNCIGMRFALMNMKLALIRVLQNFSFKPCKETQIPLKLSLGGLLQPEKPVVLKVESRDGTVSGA
Cytochrome P450 2C9, sequence (P11712 whole entry): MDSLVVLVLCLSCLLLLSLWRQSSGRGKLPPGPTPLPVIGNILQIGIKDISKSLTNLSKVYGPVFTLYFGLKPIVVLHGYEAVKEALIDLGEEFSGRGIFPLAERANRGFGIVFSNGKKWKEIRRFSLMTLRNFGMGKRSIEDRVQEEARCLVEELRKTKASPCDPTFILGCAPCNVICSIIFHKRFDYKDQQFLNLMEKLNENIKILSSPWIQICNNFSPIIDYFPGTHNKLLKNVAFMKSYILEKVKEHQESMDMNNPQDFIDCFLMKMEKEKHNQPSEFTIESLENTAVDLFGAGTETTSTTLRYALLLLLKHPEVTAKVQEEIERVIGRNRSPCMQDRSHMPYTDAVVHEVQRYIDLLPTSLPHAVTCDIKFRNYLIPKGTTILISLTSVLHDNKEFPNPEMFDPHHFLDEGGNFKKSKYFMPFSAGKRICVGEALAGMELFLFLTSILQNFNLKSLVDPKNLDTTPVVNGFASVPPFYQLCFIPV

Row | IC50 [1] [nM] | Structure (SMILES) | further results
1 | 0.09 | CC#CCOc1ccc2cc(C(c3ccc(C#N)cc3)n3cncn3)oc2c1 (stereo not drawn) | IC50 [2]: 2880 nM; IC50 [3]: > 25000 nM; IC50 [4]: > 25000 nM; Activity [5]: Non-Toxic; Activity [6]: Non-Toxic; IC50 [7]: > 25000 nM; IC50 [8]: 2170 nM
2 | > 1000 | COc1ccc(C(c2cc3cc(Cl)ccc3o2)n2cncn2)cc1 (stereo not drawn) | –
3 | 0.01 | CCC#CCOc1ccc2c(=O)c3ccc(Cn4ccnc4)cc3oc2c1 | –
4 | 2.76 | CCC#CCOc1ccc2cc(C(c3ccc(Cl)cc3)n3cncn3)oc2c1 (stereo not drawn) | –
5 | 1.03 | C#CCOc1ccc2cc(C(c3ccc(Cl)cc3)n3cncn3)oc2c1 (stereo not drawn) | –
6 | 4.1 | CC#CCOc1ccc2cc(C(c3ccc(F)cc3)n3cncn3)oc2c1 (stereo not drawn) | –
7 | 0.01 | CCC#CCOc1cc(Cn2ccnc2)c2c(=O)c3ccccc3oc2c1 | –
8 | 0.72 | CCC#CCOc1ccc2cc(C(c3ccc(C#N)cc3)n3cncn3)oc2c1 (stereo not drawn) | –

Continued, compound first:

Row | Structure (SMILES) | IC50 [1] [nM] | further results
9 | CC#CCOc1ccc2cc(C(c3ccc(Cl)cc3)n3cncn3)oc2c1 (stereo not drawn) | 0.53 | –
10 | Oc1ccc2cc(C(c3ccc(F)cc3)n3cncn3)oc2c1 (stereo not drawn) | 0.39 | Activity [5]: Non-Toxic; Activity [6]: Non-Toxic
11 | CCC#CCOc1ccc2oc(C(c3ccc(Cl)cc3)n3cncn3)cc2c1 (stereo not drawn) | 21 | –
12 | Oc1ccc(C(c2cc3cc(Cl)ccc3o2)n2cncn2)cc1 (stereo not drawn) | 30.3 | –
13 | CCOc1ccc2cc(C(c3ccc(Cl)cc3)n3cncn3)oc2c1 (stereo not drawn) | 0.46 | –
14 | COc1ccc2oc(C(c3ccc(Cl)cc3)n3cncn3)cc2c1 (stereo not drawn) | 2.01 | –
15 | Oc1ccc2oc(C(c3ccc(Cl)cc3)n3cncn3)cc2c1 (stereo not drawn) | 5.67 | –
16 | CCC#CCOc1ccc2cc(C(c3ccc(F)cc3)n3cncn3)oc2c1 (stereo not drawn) | 0.51 | Activity [5]: Non-Toxic; Activity [6]: Non-Toxic
17 | COc1cccc2c1C(=O)c1c(O)c3c(c(O)c1C2=O)C[C@@](O)(C(=O)CO)C[C@@H]3O[C@H]1C[C@H](N)[C@H](O)[C@H](C)O1 [DOXORUBICIN] | – | Activity [5]: Non-Toxic; Activity [6]: Non-Toxic
18 | CCC#CCOc1ccc(C(c2cc3cc(Cl)ccc3o2)n2cncn2)cc1 (stereo not drawn) | > 1000 | –
19 | CCC#CCOc1cc(Cn2ccnc2)c2oc3ccccc3c(=O)c2c1 | 0.77 | –
20 | COc1ccc2cc(C(c3ccc(F)cc3)n3cncn3)oc2c1 (stereo not drawn) | – | Activity [5]: Non-Toxic; Activity [6]: Non-Toxic
